Measurements taken from ChEMBL document CHEMBL5620355, “Discovery of intracellular self-assembly protein degraders driven by tumor-specific activatable bioorthogonal reaction” (Eur J Med Chem, 2023).
The source made the active and inactive calls. No cut-off for these calls is given here.

How the values were obtained:
[1] = Stability of compound in DMEM medium by HPLC analysis; assay type: physicochemical
A549 [2] = assay: Antiproliferative activity against human A549 cells incubated for 48 hrs in presence of 4-(4-(3-(4-chloro-3-(trifluoromethyl)phenyl)ureido)phenoxy)-N-(prop-2-yn-1-yl)picolinamide by MTT assay; assay type: functional, cell-based; conditions: A549, 48 h
[3] = molecular target: T1, Ephrin type-B receptor 4 (Homo sapiens) (UniProt P54760); assay: Induction of EphB4 degradation in human U87 cells at 2 uM incubated for 48 hrs in presence of 4-(4-(3-(4-chloro-3-(trifluoromethyl)phenyl)ureido)phenoxy)-N-(prop-2-yn-1-yl)picolinamide by Western blot analysis; assay type: cell-based
T1 sequence (whole entry): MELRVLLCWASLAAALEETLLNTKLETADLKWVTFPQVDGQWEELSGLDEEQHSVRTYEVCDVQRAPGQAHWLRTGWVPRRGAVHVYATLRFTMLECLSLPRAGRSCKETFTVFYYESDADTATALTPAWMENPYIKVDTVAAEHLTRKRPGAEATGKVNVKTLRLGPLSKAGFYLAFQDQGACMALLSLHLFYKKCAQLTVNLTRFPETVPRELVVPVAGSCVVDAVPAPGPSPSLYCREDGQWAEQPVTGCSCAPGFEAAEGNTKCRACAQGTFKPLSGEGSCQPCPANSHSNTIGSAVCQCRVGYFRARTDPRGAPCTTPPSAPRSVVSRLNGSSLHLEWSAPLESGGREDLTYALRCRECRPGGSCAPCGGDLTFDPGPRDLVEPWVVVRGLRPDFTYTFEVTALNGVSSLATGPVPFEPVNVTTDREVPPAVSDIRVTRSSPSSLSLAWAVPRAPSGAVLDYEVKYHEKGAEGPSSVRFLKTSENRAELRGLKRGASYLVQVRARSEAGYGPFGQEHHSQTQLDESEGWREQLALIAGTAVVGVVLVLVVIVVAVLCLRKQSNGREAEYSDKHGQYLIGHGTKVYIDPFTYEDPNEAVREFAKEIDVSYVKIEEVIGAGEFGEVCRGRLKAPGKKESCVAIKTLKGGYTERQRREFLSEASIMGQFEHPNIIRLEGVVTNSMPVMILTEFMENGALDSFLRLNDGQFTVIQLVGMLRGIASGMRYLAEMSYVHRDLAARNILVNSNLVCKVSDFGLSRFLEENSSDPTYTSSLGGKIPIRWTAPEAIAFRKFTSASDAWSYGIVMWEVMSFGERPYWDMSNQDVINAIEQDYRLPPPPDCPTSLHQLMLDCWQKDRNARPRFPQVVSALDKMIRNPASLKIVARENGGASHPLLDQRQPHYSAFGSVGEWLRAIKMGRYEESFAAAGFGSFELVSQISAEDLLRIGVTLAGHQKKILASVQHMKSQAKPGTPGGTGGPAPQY

[4] = molecular target: Vascular endothelial growth factor receptor 2 (Homo sapiens) (UniProt P35968); assay: Induction of VEGFR2 degradation in human U87 cells at 2 uM incubated for 48 hrs in presence of 4-(4-(3-(4-chloro-3-(trifluoromethyl)phenyl)ureido)phenoxy)-N-(prop-2-yn-1-yl)picolinamide by Western blot analysis; assay type: cell-based
HEK293 [5] = assay: Cytotoxicity against HEK293 cells incubated for 48 hrs by MTT assay; assay type: toxicity, cell-based; conditions: human, hek293, 48 h
U-87 MG [6] = assay: Induction of cell cycle arrest at S phase in human U87 cells incubated for 48 hrs in presence of 4-(4-(3-(4-chloro-3-(trifluoromethyl)phenyl)ureido)phenoxy)-N-(prop-2-yn-1-yl)picolinamide by PI staining based flow cytometry; assay type: functional; conditions: U-87MG ATCC, dose 0.1-1 µM
[7] = molecular target: T1, Ephrin type-B receptor 4 (Homo sapiens); assay: Induction of EphB4 degradation in human U87 cells upto 10 uM incubated for 48 hrs by Western blot analysis; assay type: cell-based
HEK293 [8] = assay: Cytotoxicity against HEK293 cells at low concentration incubated for 48 hrs in presence of 4-(4-(3-(4-chloro-3-(trifluoromethyl)phenyl)ureido)phenoxy)-N-(prop-2-yn-1-yl)picolinamide by MTT assay; assay type: toxicity, cell-based; conditions: human, hek293, 48 h
U-87 MG [9] = assay: Antiproliferative activity against human U87 cells incubated for 48 hrs by MTT assay; assay type: functional, cell-based, U-87MG ATCC
U-87 MG [10] = assay: Antiproliferative activity against human U87 cells incubated for 48 hrs in presence of 4-(4-(3-(4-chloro-3-(trifluoromethyl)phenyl)ureido)phenoxy)-N-(prop-2-yn-1-yl)picolinamide by MTT assay; assay type: functional, cell-based, U-87MG ATCC
[11] = molecular target: Vascular endothelial growth factor receptor 2 (Homo sapiens) (UniProt P35968); assay: Induction of VEGFR2 degradation in human U87 cells upto 10 uM incubated for 48 hrs by Western blot analysis; assay type: cell-based
[12] = molecular target: Platelet-derived growth factor receptor beta (Homo sapiens) (UniProt P09619); assay: Induction of PDGFR-beta degradation in human U87 cells upto 10 uM incubated for 48 hrs by Western blot analysis; assay type: cell-based
[13] = molecular target: Serine/threonine-protein kinase B-raf (Homo sapiens) (UniProt P15056); assay: Induction of BRAF degradation in human U87 cells upto 10 uM incubated for 48 hrs by Western blot analysis; assay type: cell-based
HEK293 [14] = assay: Cytotoxicity against HEK293 cells at high concentration incubated for 48 hrs in presence of 4-(4-(3-(4-chloro-3-(trifluoromethyl)phenyl)ureido)phenoxy)-N-(prop-2-yn-1-yl)picolinamide by MTT assay; assay type: toxicity, cell-based; conditions: human, hek293, 48 h
A549 [15] = assay: Antiproliferative activity against human A549 cells incubated for 48 hrs by MTT assay; assay type: functional, cell-based; conditions: A549, 48 h
HEK293 [16] = assay: Cytotoxicity against HEK293 cells at high concentration incubated for 48 hrs by MTT assay; assay type: toxicity, cell-based; conditions: human, hek293, 48 h
HEK293 [17] = assay: Cytotoxicity against HEK293 cells at low concentration incubated for 48 hrs by MTT assay; assay type: toxicity, cell-based; conditions: human, hek293, 48 h

Chain of Vascular endothelial growth factor receptor 2 (Homo sapiens) (P35968 whole entry): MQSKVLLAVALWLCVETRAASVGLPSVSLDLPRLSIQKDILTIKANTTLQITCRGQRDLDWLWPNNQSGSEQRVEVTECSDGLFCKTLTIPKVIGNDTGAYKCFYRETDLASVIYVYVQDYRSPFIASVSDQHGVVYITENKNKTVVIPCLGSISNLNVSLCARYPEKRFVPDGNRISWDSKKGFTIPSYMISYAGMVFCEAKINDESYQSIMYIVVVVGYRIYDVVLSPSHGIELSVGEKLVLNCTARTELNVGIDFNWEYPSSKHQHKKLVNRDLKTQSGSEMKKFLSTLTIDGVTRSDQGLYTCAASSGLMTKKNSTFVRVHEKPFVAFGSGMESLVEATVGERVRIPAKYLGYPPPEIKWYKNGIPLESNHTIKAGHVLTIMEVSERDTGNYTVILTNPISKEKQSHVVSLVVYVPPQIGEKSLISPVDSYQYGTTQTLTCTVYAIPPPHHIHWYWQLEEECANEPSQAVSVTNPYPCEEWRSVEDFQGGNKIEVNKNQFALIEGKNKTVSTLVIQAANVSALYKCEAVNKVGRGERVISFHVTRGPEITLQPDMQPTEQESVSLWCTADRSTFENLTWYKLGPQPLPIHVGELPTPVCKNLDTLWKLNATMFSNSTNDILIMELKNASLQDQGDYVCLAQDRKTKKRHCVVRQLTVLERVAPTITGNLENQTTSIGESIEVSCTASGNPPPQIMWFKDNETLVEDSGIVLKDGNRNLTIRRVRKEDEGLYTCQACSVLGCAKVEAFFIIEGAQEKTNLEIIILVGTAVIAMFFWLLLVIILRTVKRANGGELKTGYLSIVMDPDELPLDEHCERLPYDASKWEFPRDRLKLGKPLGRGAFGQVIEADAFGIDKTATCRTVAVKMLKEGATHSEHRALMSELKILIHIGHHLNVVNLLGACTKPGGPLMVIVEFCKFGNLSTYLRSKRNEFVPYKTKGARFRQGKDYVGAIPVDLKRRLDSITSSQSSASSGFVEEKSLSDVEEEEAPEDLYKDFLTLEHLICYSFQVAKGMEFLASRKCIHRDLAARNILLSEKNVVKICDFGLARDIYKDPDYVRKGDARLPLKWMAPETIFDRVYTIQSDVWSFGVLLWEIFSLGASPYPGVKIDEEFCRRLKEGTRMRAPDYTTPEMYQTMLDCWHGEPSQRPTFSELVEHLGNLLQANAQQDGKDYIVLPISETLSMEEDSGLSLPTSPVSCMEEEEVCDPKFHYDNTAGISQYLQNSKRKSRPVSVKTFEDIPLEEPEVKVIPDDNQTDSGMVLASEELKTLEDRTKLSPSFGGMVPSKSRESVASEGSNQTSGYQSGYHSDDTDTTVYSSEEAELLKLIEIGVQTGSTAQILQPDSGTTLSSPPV
Chain of Serine/threonine-protein kinase B-raf (Homo sapiens) (P15056 whole entry): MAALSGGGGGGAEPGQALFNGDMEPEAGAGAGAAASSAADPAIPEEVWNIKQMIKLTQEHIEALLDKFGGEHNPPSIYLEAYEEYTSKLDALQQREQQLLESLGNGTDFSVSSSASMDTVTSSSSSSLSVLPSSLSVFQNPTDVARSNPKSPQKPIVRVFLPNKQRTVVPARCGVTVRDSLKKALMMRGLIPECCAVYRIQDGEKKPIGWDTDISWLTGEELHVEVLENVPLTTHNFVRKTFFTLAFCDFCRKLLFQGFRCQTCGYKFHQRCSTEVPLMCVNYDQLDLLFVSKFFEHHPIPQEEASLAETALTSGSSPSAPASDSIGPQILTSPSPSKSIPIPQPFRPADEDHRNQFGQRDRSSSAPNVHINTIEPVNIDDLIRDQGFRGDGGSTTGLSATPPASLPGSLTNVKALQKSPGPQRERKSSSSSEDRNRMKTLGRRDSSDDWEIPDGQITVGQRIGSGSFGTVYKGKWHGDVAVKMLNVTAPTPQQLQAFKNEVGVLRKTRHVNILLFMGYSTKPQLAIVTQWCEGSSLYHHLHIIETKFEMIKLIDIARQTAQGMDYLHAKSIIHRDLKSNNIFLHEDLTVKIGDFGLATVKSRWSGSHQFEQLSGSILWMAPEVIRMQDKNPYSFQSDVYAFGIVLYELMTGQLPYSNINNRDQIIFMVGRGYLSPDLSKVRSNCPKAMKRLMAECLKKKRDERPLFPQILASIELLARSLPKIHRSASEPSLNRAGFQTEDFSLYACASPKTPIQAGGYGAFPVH
Chain of Platelet-derived growth factor receptor beta (Homo sapiens) (P09619 whole entry): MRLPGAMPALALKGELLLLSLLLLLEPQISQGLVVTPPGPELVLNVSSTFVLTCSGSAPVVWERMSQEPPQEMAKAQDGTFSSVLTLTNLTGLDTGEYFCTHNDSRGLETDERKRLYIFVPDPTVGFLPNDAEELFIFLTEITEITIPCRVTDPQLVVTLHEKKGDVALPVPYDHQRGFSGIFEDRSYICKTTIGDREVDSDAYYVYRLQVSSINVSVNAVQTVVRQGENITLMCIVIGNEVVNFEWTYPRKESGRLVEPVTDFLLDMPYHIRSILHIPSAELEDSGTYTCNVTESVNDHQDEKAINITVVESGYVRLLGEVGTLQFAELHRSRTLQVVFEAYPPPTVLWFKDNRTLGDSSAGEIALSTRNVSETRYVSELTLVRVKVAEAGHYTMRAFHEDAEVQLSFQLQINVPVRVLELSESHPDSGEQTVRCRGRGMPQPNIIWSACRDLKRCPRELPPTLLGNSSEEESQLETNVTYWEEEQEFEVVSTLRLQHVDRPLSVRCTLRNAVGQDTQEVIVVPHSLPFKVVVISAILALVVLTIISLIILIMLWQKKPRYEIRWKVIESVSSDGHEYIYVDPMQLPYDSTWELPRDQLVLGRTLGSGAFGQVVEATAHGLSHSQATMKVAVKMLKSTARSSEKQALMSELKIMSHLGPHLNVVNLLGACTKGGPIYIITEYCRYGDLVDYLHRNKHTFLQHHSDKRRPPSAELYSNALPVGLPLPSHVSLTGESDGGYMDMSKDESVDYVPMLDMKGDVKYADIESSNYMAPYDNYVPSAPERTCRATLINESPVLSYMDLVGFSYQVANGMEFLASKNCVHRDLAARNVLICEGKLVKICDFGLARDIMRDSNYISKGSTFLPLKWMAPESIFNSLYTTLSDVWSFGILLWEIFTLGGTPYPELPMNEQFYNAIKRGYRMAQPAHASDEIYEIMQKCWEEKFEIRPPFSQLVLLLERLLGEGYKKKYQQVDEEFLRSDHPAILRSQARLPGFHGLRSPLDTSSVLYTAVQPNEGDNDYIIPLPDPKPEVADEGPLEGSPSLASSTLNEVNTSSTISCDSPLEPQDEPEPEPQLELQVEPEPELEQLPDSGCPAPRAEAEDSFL

| Stability [1] | IC50 (A549 [2]) [µM] | Activity [3] | Activity [4] | Activity [7] | IC50 (U-87 MG [9]) [µM] | IC50 (U-87 MG [10]) [µM] | Activity [11] | Activity [12] | Activity [13] | IC50 (A549 [15]) [µM] | Structure (SMILES) | Activity (HEK293 [5]) | Activity (U-87 MG [6]) | Activity (HEK293 [8]) | Activity (HEK293 [14]) | Activity (HEK293 [16]) | Activity (HEK293 [17]) |
| --- | --- | --- | --- | --- | --- | --- | --- | --- | --- | --- | --- | --- | --- | --- | --- | --- | --- |
| Stable | 1.06 | Active | Active | inactive | > 50 | 16 | inactive | inactive | inactive | > 50 | Cc1ncsc1-c1ccc(CNC(=O)[C@@H]2C[C@@H](O)CN2C(=O)[C@@H](NC(=O)CCCCN=[N+]=[N-])C(C)(C)C)cc1 | Non-Toxic | Dose-Dependent Effect | Non-Toxic | Toxic |  |  |
|  |  |  |  |  | 1.28 |  |  |  |  | 8.26 | CNC(=O)c1cc(Oc2ccc(NC(=O)Nc3ccc(Cl)c(C(F)(F)F)c3)cc2)ccn1 [SORAFENIB] |  |  |  |  | Toxic | Non-Toxic |
| Unstable |  |  |  |  |  |  |  |  |  |  | Nc1cccc2c1C(=O)N(C1CCC(=O)NC1=O)C2=O (stereo not given) [POMALIDOMIDE] |  |  |  |  |  |  |
